Experimental data reported in PubChem BioAssay (NCI).
Several values for one entry are separate records, joined by “and”; a condition that tells them apart may be missing. Equal entries are not always repeated.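 Step 1: Grow cells in 96-well plates. Step 2: Expose to compound for 48 hours at 5 concentrations. Step 3: Interpolate endpoints linearly; if unreached, use highest concentration. Abbreviation: GI50, concentration required for 50% inhibition of growth. Definition used: TGI = concentration required for complete inhibition of growth.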

Tests used:
Test in all cases: inhibition of tumour cell growth, NCI panel, 48 h
[1] = tested on: MDA-MB-435
[2] = tested on: SK-MEL-2 melanoma
[3] = tested on: UACC-62 melanoma
[4] = tested on: SF-295 CNS
[5] = tested on: SN12C renal
[6] = tested on: MDA-MB-231 breast
[7] = tested on: K-562 leukemia
[8] = tested on: HCT-15 colon
[9] = tested on: ACHN renal
[10] = tested on: SW-620 colon

| Compound | GI50 [1] | TGI [1] | GI50 [2] | TGI [2] | GI50 [3] | TGI [3] | GI50 [4] | TGI [4] | GI50 [5] | TGI [5] | GI50 [6] | TGI [6] | GI50 [7] | TGI [7] | GI50 [8] | TGI [8] | GI50 [9] | TGI [9] | GI50 [10] | TGI [10] |
| --- | --- | --- | --- | --- | --- | --- | --- | --- | --- | --- | --- | --- | --- | --- | --- | --- | --- | --- | --- | --- |
| CC(C)(C)c1cc(NC(=O)Cc2ccc(-c3cnc4cc(-c5cnn(CCN6CCOCC6)c5)ccc4n3)cc2)no1 | 0.356 µM and 0.452 µM and 0.0989 µM | 50 µM and > 100 µM and > 3 µM | 0.347 µM and 0.42 µM and 0.0569 µM | 50 µM and > 100 µM and > 2.53 µM | 0.26 µM and 0.364 µM and 0.0552 µM | 50 µM and > 100 µM and > 3 µM | 0.436 µM and 0.461 µM and 0.0839 µM | 50 µM and > 100 µM and > 3 µM | 0.243 µM and 0.348 µM and 0.0645 µM | 50 µM and > 100 µM and > 3 µM | 0.622 µM and 0.573 µM | 50 µM and > 100 µM and > 2.85 µM | 0.216 µM and 0.307 µM and 0.0848 µM | 50 µM and > 100 µM and > 3 µM | 0.166 µM and 0.342 µM and 0.0517 µM | 50 µM and > 100 µM and > 3 µM | 0.151 µM and 0.302 µM and 0.0394 µM | 50 µM and > 100 µM and > 3 µM | 0.22 µM and 0.414 µM and 0.0878 µM | 9.2 µM and 67.1 µM and > 1.25 µM |
| CCCS(=O)(=O)/C(=C(\c1ccc(Br)cc1)S(=O)(=O)CCC)c1ccc(Br)cc1 |  |  |  | > 10 µM |  | > 10 µM |  | > 10 µM |  | > 10 µM |  |  |  | > 10 µM |  | > 10 µM |  | > 10 µM |  | > 10 µM |
| COc1ccc2nc3cc(Cl)ccc3c(NCCN)c2c1 | 1.76 µM | 3.36 µM | 14.5 µM | 31.2 µM |  |  |  |  |  |  |  |  |  |  | 1.87 µM | 3.9 µM | 1.58 µM | 3.17 µM | 1.45 µM | 3.25 µM |
| CCCCCN(CCCCC)CC(O)c1ccc(Cl)c2ccccc12 (configuration not stated) | 6.43 µM | 45 µM | 17.4 µM | 38.2 µM | 6.25 µM | 22.2 µM | 3.99 µM | 26.3 µM | 10.6 µM | 24.6 µM | 10.8 µM | 26.4 µM | 4.23 µM | 20.8 µM | 6.98 µM | 22.1 µM | 10.3 µM | 22.5 µM | 2.77 µM | 13.6 µM |
| CO[C@H]1C=C[C@@]23c4cc5c(cc4CO[C@]2(O)CN(C)[C@H]3C1)OCO5 |  | > 100 µM |  | > 100 µM |  | > 100 µM |  | > 100 µM |  | > 100 µM |  | > 100 µM |  | > 100 µM |  | > 100 µM |  | > 100 µM |  | > 100 µM |
| CC(=O)O.[Au].c1ccc([PH+](c2ccccc2)c2ccccc2)cc1 |  |  | 3.24 µM | 8.47 µM | 1.47 µM | 4.03 µM | 2.89 µM | > 100 µM | 2.94 µM | 8.85 µM |  |  |  |  | 1.56 µM | 3.15 µM | 2.86 µM | 8.53 µM |  |  |
| C/C=C1/C(=C/c2[nH]c(/C=c3\[nH]/c(=C/C4=NC(=O)C(CC)=C4C)c(C)c3CCC(=O)O)c(CCC(=O)O)c2C)NC(=O)C1C (configuration not stated) |  |  | > 150 µg/mL | > 150 µg/mL | > 150 µg/mL | > 150 µg/mL |  |  | > 150 µg/mL | > 150 µg/mL |  |  | > 150 µg/mL | > 150 µg/mL | > 150 µg/mL | > 150 µg/mL | > 150 µg/mL | > 150 µg/mL | > 150 µg/mL | > 150 µg/mL |
| COC(=O)C(=O)C(C(=O)C=C(C)C)C(=O)C(=O)Nc1ccc(C)cc1C (configuration not stated) |  |  |  | > 100 µM |  | > 100 µM |  | > 100 µM |  | > 100 µM |  |  |  | > 100 µM |  | > 100 µM |  | > 100 µM |  | > 100 µM |
